# Assay results published in patent publication US12428413B2 (CHDI Foundation, Inc., priority 2019, dated 2025).
# System: cellular ROCK activity (cofilin phosphorylation at Ser3) in A7r5 rat smooth muscle cells
# Test: Cellular ROCK activity: cofilin (Ser3) phosphorylation, In-Cell Western assay
# Assay type: cell-based
# Settings: Rattus norvegicus, A7R5, 1 h, 1 hour compound incubation, phospho-cofilin (Ser3), read-out: CELL_IC50
# Procedure: The potency of Rho-associated protein kinase (ROCK) inhibitors was quantified by measuring cofilin phosphorylation levels at Serine 3 (Ser3) as a measure of cellular ROCK activity by In-Cell Western assay. […] The assay plate was imaged and quantified on the Odyssey imager (LICOR Biosciences).
# ROCK inhibitor compound plate preparation. […] Stock compounds and control are added directly to ECHO plate (Labcyte) by Janus.
# A7r5 cell culture and plating. A7r5 cells were cultured according to standard cell culture protocols in A7r5 growth media (DMEM with Glutamax and 10% FBS). […] 45 μl of re-suspended A7r5 cells were plated at 3000 cells/well in a sterile, μclear, black, F-bottom, 384-well microplate (Greiner bio-one). Seeded cells allowed to settle in wells on the bench for 1 hour before incubation at 37° C., 5% CO2 overnight.
# Assay reagent and antibody preparations. Wash buffer was prepared by addition of Tween-20 to Dulbecco's Phosphate Buffered Saline (DPBS) (1×) without calcium and magnesium to make 1% Tween-20 as final concentration. Blocking buffer was prepared by addition of TritonX-100 to SeaBlock buffer (ThermoFisher) to make 0.3% TritonX-100 as final concentration. […] Secondary antibody mix was prepared by diluting donkey anti-rabbit 800CW antibody (LICOR Biosciences) 1:1000 in SeaBlock buffer.
# Assay procedure. Compound plate was diluted by addition of 19 μl/well compound dilution buffer (DMEM with Glutamax) using 125 μl 16-channel Matrix electronic pipette. 5 μl diluted compound was stamped from compound plate to assay plate containing A7r5 cells using Bravo (384-well head from Agilent) liquid handler and incubated at 37° C., 5% CO2 for 1 hour. Cells were fixed by addition of 5 μl 37% formaldehyde using 125 μl 16-channel Matrix electronic pipette and incubation for 20 min at room temperature. The assay plate was washed 5× with 60 μl/well wash buffer. […] Next, the assay plate was sealed, centrifuged at 1000 rpm for 5 seconds and incubated at 4° C. overnight on an orbital shaker at 300 rpm. […] The assay plate was centrifuged at 1000 rpm for 5 seconds and incubated on an orbital shaker at 300 rpm for 60 min at room temperature. Finally, assay plate was washed and wells left empty before measurement of 700 nm and 800 nm fluorescence intensities on Odyssey imager set at 4.0 mm focus offset.
row,SMILES,IC50 [nM]
1,"C[C@@H]1CN(c2ccncc2F)CCN1C(=O)N[C@H](C)c1ccccc1Cl [Example 42, (R)—N—((R)-1-(2-Chlorophenyl)ethyl)-4-(3-fluoropyridin-4-yl)-2-methylpiperazine-1-carboxamide]",73
2,C[C@@H](NC(=O)N1CCN(c2ccnc(F)c2)CC1)c1cccc2occc12 [Example 104],830
3,C[C@@H]1CN(c2ccnc(F)c2)CCN1C(=O)N[C@H](C)c1ccccc1Cl [Example 109],1090
4,C[C@@H](NC(=O)N1CCN(c2ccncc2F)[C@@H](C)C1)c1cccc2occc12 [Example 148],71.6
5,"Cc1cc2c([C@@H](C)NC(=O)N3CCN(c4ccnc(F)c4)C[C@H]3C)cccc2o1 [Example 4, (R)-4-(2-Fluoropyridin-4-yl)-2-methyl-N—((R)-1-(2-methylbenzofuran-4-yl)ethyl)piperazine-1-carboxamide]",356
6,"C[C@@H]1CN(c2ccncc2F)CCN1C(=O)NCc1cccc2c1OCO2 [Example 75, (R)—N-(Benzo[d][1,3]dioxol-4-ylmethyl)-4-(3-fluoropyridin-4-yl)-2-methylpiperazine-1-carboxamide]",150
7,"C[C@H](NC(=O)N1CCN(c2ccncc2F)C[C@H]1C)c1cccc(F)c1Cl [Example 48, (R)—N—((S)-1-(2-chloro-3-fluorophenyl)ethyl)-4-(3-fluoropyridin-4-yl)-2-methylpiperazine-1-carboxamide]",279
8,"CC[C@@H]1CN(c2ccncc2F)CCN1C(=O)N[C@H](C)c1cccc(OC)c1 [Example 83, (R)-2-Ethyl-4-(3-fluoropyridin-4-yl)-N—((R)-1-(3-methoxyphenyl)ethyl)piperazine-1-carboxamide]",31.4
9,C[C@@H]1CN(c2ccnc(F)c2)CCN1C(=O)N[C@H](C)c1cccc(OC(F)F)c1 [Example 108],638
10,"C[C@@H](NC(=O)N1CCN(c2ccncc2F)CC1)c1ccccc1Br [Example 19, (R)—N-(1-(2-Bromophenyl)ethyl)-4-(3-fluoropyridin-4-yl)piperazine-1-carboxamide]",1470
11,"C[C@@H]1CN(c2ccncc2F)CCN1C(=O)N[C@H](C)c1cccc2ccn(C)c12 [Example 63, (R)-4-(3-Fluoropyridin-4-yl)-2-methyl-N—((R)-1-(1-methyl-1H-indol-7-yl)ethyl)piperazine-1-carboxamide]",44.2
12,COc1cccc([C@@H](C)NC(=O)N2CCN(c3ccnc(F)c3)CC2)c1 [Example 101],871
13,C[C@@H](NC(=O)N1CCN(c2ccnc(F)c2)CC1)c1cccc2c1CCO2 [Example 102],198
14,COc1cccc([C@H](C)NC(=O)N2CCN(c3ccncc3F)C[C@H]2C)c1Cl [Example 140],2620
15,"Cc1cnc2cccc([C@H](C)NC(=O)N3CCN(c4ccnc(F)c4)C[C@H]3C)n12 [Example 10, (R)-4-(2-Fluoropyridin-4-yl)-2-methyl-N—((S)-1-(3-methylimidazo[1,2-a]pyridin-5-yl)ethyl)piperazine-1-carboxamide]",≥ 5000
16,"C[C@@H]1CN(c2ccncc2F)CCN1C(=O)N[C@H](C)c1cccnc1 [Example 52, (R)-4-(3-Fluoropyridin-4-yl)-2-methyl-N—((R)-1-(pyridin-3-yl)ethyl)piperazine-1-carboxamide]",234
17,COc1cccc([C@@H](C)NC(=O)N2CCN(c3ccnc(F)c3)[C@@H](C)C2)c1 [Example 117],107

# More lines, in order of falling IC50, values ahead:
row,IC50 [nM],SMILES
1,3000,"Cc1nc2c([C@H](C)NC(=O)N3CCN(c4ccncc4F)C[C@H]3C)cccc2o1 [Example 70, (R)-4-(3-Fluoropyridin-4-yl)-2-methyl-N—((S)-1-(2-methylbenzo[d]oxazol-4-yl)ethyl)piperazine-1-carboxamide]"
2,2740,C[C@H]1CN(C(=O)NCc2cccc(OC(F)F)c2)CCN1c1ccncc1F [Example 149]
3,2010,"C[C@@H]1CN(c2ccncc2F)CCN1C(=O)NCc1cccc2c1cnn2C [Example 79, (R)-4-(3-Fluoropyridin-4-yl)-2-methyl-N-((1-methyl-1H-indazol-4-yl)methyl)piperazine-1-carboxamide]"
4,1780,"C[C@@H](NC(=O)N1CCN(c2ccncc2F)CC1)c1ccc(F)cc1Cl [Example 21, (R)—N-(1-(2-Chloro-4-fluorophenyl)ethyl)-4-(3-fluoropyridin-4-yl)piperazine-1-carboxamide]"
5,1040,COc1cccc([C@@H](C)NC(=O)N2CCN(c3ccncc3F)C[C@H]2C)c1Cl [Example 135]
6,761,"O=C(NCc1cccc2occc12)N1CCN(c2ccncc2F)CC1 [Example 38, N-(Benzofuran-4-ylmethyl)-4-(3-fluoropyridin-4-yl)piperazine-1-carboxamide]"
7,164,"COc1ccc(Cl)c([C@@H](C)NC(=O)N2CCN(c3ccncc3F)C[C@H]2C)c1 [Example 49, (R)—N—((R)-1-(2-Chloro-5-methoxyphenyl)ethyl)-4-(3-fluoropyridin-4-yl)-2-methylpiperazine-1-carboxamide]"
8,163,COc1cc(F)cc([C@@H](C)NC(=O)N2CCN(c3ccncc3F)CC2)c1 [Example 128]
9,131,"C[C@@H]1CN(c2ccncc2F)CCN1C(=O)N[C@H](C)c1cccc(F)c1Cl [Example 47, (R)—N—((R)-1-(2-Chloro-3-fluorophenyl)ethyl)-4-(3-fluoropyridin-4-yl)-2-methylpiperazine-1-carboxamide]"
10,125,"C[C@@H]1CN(c2ccncc2F)CCN1C(=O)N[C@H](C)c1ccccc1Br [Example 45, (R)—N—((R)-1-(2-Bromophenyl)ethyl)-4-(3-fluoropyridin-4-yl)-2-methylpiperazine-1-carboxamide]"
11,104,"Cc1nc2c([C@@H](C)NC(=O)N3CCN(c4ccncc4F)C[C@H]3C)cccc2o1 [Example 69, (R)-4-(3-Fluoropyridin-4-yl)-2-methyl-N—((R)-1-(2-methylbenzo[d]oxazol-4-yl)ethyl)piperazine-1-carboxamide]"
12,86.1,"C[C@@H]1CN(c2ccncc2F)CCN1C(=O)NCc1cccc2occc12 [Example 76, (R)—N-(Benzofuran-4-ylmethyl)-4-(3-fluoropyridin-4-yl)-2-methylpiperazine-1-carboxamide]"
13,75.5,"C[C@@H]1CN(c2ccncc2F)CCN1C(=O)NCc1cccc2ncccc12 [Example 80, (R)-4-(3-Fluoropyridin-4-yl)-2-methyl-N-(quinolin-5-ylmethyl)piperazine-1-carboxamide]"
14,33.1,"Cc1cc2c([C@@H](C)NC(=O)N3CCN(c4ccncc4F)C[C@H]3C)cccc2o1 [Example 60, (R)-4-(3-Fluoropyridin-4-yl)-2-methyl-N—((R)-1-(2-methylbenzofuran-4-yl)ethyl)piperazine-1-carboxamide]"
15,17.6,"C[C@@H]1CN(c2ccncc2F)CCN1C(=O)N[C@H](C)c1cccc2nccn12 [Example 58, (R)-4-(3-fluoropyridin-4-yl)-N—((R)-1-(imidazo[1,2-a]pyridin-5-yl)ethyl)-2-methylpiperazine-1-carboxamide]"
16,15.2,"COc1cc(F)cc([C@@H](C)NC(=O)N2CCN(c3ccncc3F)C[C@H]2C)c1 [Example 51, (R)—N—((R)-1-(3-Fluoro-5-methoxyphenyl)ethyl)-4-(3-fluoropyridin-4-yl)-2-methylpiperazine-1-carboxamide]"
17,4.9,C[C@@H]1CN(c2c(F)cncc2F)CCN1C(=O)N[C@H](C)c1cccc2c1CCO2 [Example 156]
